Activity calls are given as the source filed them. No cut-off for these calls is given here. Positions of bridges follow the written chain, without caps; N, C: chain ends. Residues, ends and D or L forms follow the SMILES beside them.
Assays:
[1] = molecular target: T1, Peptidyl-prolyl cis-trans isomerase NIMA-interacting 1 (Homo sapiens, UniProt Q13526); experiment: Binding affinity to human Pin1 PPIase domain at 480 uM by NMR chemical shift perturbation method
[2] = molecular target: T1, Peptidyl-prolyl cis-trans isomerase NIMA-interacting 1; experiment: Binding affinity to human Pin1 WW domain at 480 uM by NMR chemical shift perturbation method
[3] = molecular target: T1, Peptidyl-prolyl cis-trans isomerase NIMA-interacting 1; experiment: Binding affinity to human Pin1 active site at 200 uM by NMR study
[4] = molecular target: T1, Peptidyl-prolyl cis-trans isomerase NIMA-interacting 1; experiment: Binding affinity to human Pin1 PPIase domain at 200 uM by agarose gel electrophoresis
[5] = molecular target: T1, Peptidyl-prolyl cis-trans isomerase NIMA-interacting 1; experiment: Binding affinity to human Pin1 WW domain at 200 uM by agarose gel electrophoresis
[6] = molecular target: T1, Peptidyl-prolyl cis-trans isomerase NIMA-interacting 1; experiment: Inhibition of human GST-tagged-Pin1 PPIase activity using Suc-AEPF-pNA as substrate by Michaelis-Menten equation
[7] = molecular target: T1, Peptidyl-prolyl cis-trans isomerase NIMA-interacting 1; experiment: Competitive inhibition of human GST-tagged-Pin1 PPIase activity using WFYpSPR-pNA as substrate by Michaelis-Menten equation
[8] = Solubility of the compound; assay type: physicochemical

T1 sequence (Q13526 whole entry, the tested form may be a part): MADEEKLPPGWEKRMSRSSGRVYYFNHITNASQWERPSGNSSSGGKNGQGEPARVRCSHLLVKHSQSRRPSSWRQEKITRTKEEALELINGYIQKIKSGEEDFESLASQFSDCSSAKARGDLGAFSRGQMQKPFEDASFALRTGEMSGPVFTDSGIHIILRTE

SMILES	Activity [1]	Activity [2]	Activity [3]	Activity [4]	Activity [5]	Ki [6] [µM]	Ki [7] [µM]	solubility [8]
CC[C@H](C)[C@@H]1NC(=O)[C@H](CCC(=O)O)NC(=O)[C@H](C(C)C)NC(=O)[C@H](CCC(=O)O)NC(=O)[C@@H]2CCCN2C(=O)[C@H](Cc2ccc(O)cc2)NC(=O)[C@H](CCCNC(=N)N)NC(=O)[C@@H](N)CSSC[C@@H](C(=O)O)NC1=O (H-CRYPEVEIC-OH; disulfide 1-9)	Active	inactive	Active	Active	inactive	–	–	–
CC[C@H](C)[C@H](NC(=O)[C@H](CCC(=O)O)NC(=O)[C@@H](NC(=O)[C@H](CCC(=O)O)NC(=O)[C@@H]1CCCN1C(=O)[C@H](Cc1ccc(O)cc1)NC(=O)[C@H](CCCN=C(N)N)NC(=O)[C@@H](N)CS)C(C)C)C(=O)N[C@@H](CS)C(=O)O [CRYPEVEIC] (H-CRYPEVEIC-OH)	–	–	–	–	–	44	–	–
CC[C@H](C)[C@@H]1NC(=O)[C@H](CCC(=O)O)NC(=O)[C@H](C(C)C)NC(=O)[C@H](CCC(=O)O)NC(=O)[C@@H]2CCCN2C(=O)[C@H](Cc2ccc(O)cc2)NC(=O)[C@H](CCCN=C(N)N)NC(=O)[C@@H](N)CSSC[C@@H](C(=O)O)NC1=O [CYCLIC CRYPEVEIC] (H-CRYPEVEIC-OH; disulfide 1-9)	–	–	–	–	–	0.52	0.2	soluble
